Test results as given in patent US12642860B2, “Filamentous nanostructures and their use for treatment of pulmonary disease” (THE JOHNS HOPKINS UNIVERSITY, priority 2019, dated 2026).

Assays:
[1] = Jet nebulizer release profile and output; format: physicochemical; conditions: within KPA filaments 1 mM
Description: FIGS. 24A-24F are jet nebulizer release profiles of EPA, OPA, and KPA supramolecular filaments with starting formulation concentrations at (24A) 10 μM, (24B) 100 μM, and (24C) 1000 μM, showing a linear release pattern for each system over the course of a 10 min nebulization event (3 mL solution). Data given represent mean #SD (n=3); dashed lines represent line of best fit from linear regression analysis. (24D) The aerosol output rate (μg/min) of the supramolecular filaments from a jet nebulizer at different formulation concentrations, showing no statistically significant difference (ns) between filaments at the same concentration and output rate scales linearly with increasing concentration. Data are given as mean±SD (p>0.05 amongst filament systems, ****p<0.0001 amongst concentrations, two-way ANOVA, n=3). […]
We next monitored the release pattern of the supramolecular filaments in aerosol droplets from a jet nebulizer device alongside the output rate. First analyzing the blank EPA, OPA, and KPA filaments, 3 mL solutions of the filaments were loaded into a jet nebulizer at varying concentrations and the remaining concentration of PA molecules and fluid weight loss were monitored over the course of a 10 min nebulization event. FIGS. 24A-C represents the measured release profile of the three filament systems at 10 µM, 100 μM, and 1000 μM, respectively. […]

[2] = Loading capacity of drugs/dye within KPA filaments; format: physicochemical; conditions: encapsulated in KPA filaments, % by mass
Excerpt: FIGS. 20A-20C show (20A) the molecular structure of the lung disease-relevant drugs and fluorescent dye used in loading within the supramolecular filaments: paclitaxel (PTX, MW=853.92 g/mol), the anticancer drug; coumarin 6 (Cou6, MW=350.44 g/mol), the green fluorescent dye; and budesonide (BUD, MW=430.54 g/mol), the anti-inflammatory glucocorticoid used to treat symptoms of asthma and chronic obstructive pulmonary disease (top). (20B) The encapsulation process of hydrophobic drugs and dyes within supramolecular peptide amphiphile (PA)-based filaments, where dissolution of PA monomers and drug/dye in aqueous solutions results in their self-assembly with the drug/dye loaded within the hydrophobic core (left). The loading capacity of PTX, Cou6, and BUD based on mass (left axis, solid bars) and mole (right axis, checkered bars) percent within KPA supramolecular filaments (right). Data are given as mean±SD (n=5). (20C) Representative transmission electron microscopy (TEM) images of KPA filaments loaded with PTX (i, ii), Cou6 (iii, iv), and BUD (v, vi) before and after nebulization at 500 μM. Diameters are given as mean±SD (n=35).
With better insight into nebulization stability and the mechanism of supramolecular filament breakdown, we next sought to assess whether these systems can successfully carry drugs and dyes within aerosol droplets for potential inhalation-based therapies. […]

CCN(CC)c1ccc2cc(-c3nc4ccccc4s3)c(=O)oc2c1 [Cou6, coumarin 6]
aerosol output rate of encapsulated molecules [1]: comparable but higher than PTX
loading capacity by mass within KPA filaments [2]: 3.7%
